Results published in PMC9963138 (Molecules, 2023).
“Also recorded” adds a separate entry of the source. Positions of bridges follow the written chain, without caps; N, C: chain ends. Non-standard residues stand in square brackets, D forms with d. Residues, ends and D or L forms follow the SMILES beside them. Pen = CC(C)(S)[C@H](N)C(=O)O; Orn = NCCC[C@H](N)C(=O)O

What was measured:
[1] = test system: model glycoproteins containing terminal Fuc, Gal and GalNAc sugar moieties; settings: cited from earlier work
Source text: We have shown previously that odorranalectin binds to model glycoproteins containing terminal Fuc, Gal and GalNAc sugar moieties with μM affinities and identified the binding interface.

μ-opioid receptors (MOR) [2] = settings: cited from earlier work
μ-opioid receptors (MOR) [3] = settings: cited from earlier work; remark: listed apart in the source
C57BL/6J mice [4] = experiment: Breathing rate in mice (Oxymax/CLAMS), morphine-induced respiratory depression; format: in vivo
Experimental: Mice were administered intranasal saline or OL-CTOP (100 or 600 μg) 45 min prior to intraperitoneal morphine (20 mg/kg).
Respiration rates (in breaths per minute) were assessed using the Oxymax/CLAMS system (Columbus Instruments, Columbus, OH, USA) as described previously. Mice were habituated to their individual sealed housing chambers for 60 min before testing. Mice were administered morphine (20 mg/kg, i.p.) or vehicle, as indicated, and 5 min later, confined to the CLAMS testing chambers. Additional mice received pretreatment with saline (i.n.s.) or OL-CTOP (100 or 600 μg, i.n.s.) 45 min prior to morphine (20 mg/kg, i.p.). Pressure monitoring within the sealed chambers measured the frequency of respiration. Respiration data were averaged over 20 min periods for 120 min post-i.p. injection of the saline or morphine. Data are presented as % vehicle response ± SEM, breaths per minute.

MOR = target: T1, MOR (Mus musculus, UniProt P42866); experiment: 55 °C warm-water tail-withdrawal test, antagonism of i.c.v. morphine; format: in vivo, C57BL/6J mice; settings: mice, p = 0.003
T1 construct: MOR antagonism by CTOP was confirmed in vivo by pretreating mice with the parent peptide; from tissue; host or cells: living male C57BL/6J mice (central nervous system)
T1 sequence (P42866 whole entry): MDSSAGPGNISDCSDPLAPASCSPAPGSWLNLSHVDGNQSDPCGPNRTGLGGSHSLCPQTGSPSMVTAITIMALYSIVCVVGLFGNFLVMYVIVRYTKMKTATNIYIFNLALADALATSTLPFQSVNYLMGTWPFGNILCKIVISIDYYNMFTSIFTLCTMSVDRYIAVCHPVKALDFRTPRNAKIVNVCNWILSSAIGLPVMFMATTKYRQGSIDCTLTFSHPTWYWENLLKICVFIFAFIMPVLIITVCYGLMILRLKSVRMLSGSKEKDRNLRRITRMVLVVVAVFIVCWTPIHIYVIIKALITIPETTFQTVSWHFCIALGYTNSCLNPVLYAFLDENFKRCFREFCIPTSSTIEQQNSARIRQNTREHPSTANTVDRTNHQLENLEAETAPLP

[5] = target: T2, trypsin immobilized on agarose resin (Bos taurus, UniProt P00760); experiment: Proteolytic stability toward immobilized trypsin; settings: RP-HPLC and MALDI-TOF MS
T2 sequence (P00760 24-246): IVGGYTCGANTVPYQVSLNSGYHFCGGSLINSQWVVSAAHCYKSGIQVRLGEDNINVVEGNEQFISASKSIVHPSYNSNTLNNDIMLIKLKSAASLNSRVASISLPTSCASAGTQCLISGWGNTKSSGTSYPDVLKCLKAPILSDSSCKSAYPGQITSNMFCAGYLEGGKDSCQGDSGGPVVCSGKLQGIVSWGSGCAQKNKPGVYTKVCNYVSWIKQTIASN
Experimental: Immobilized trypsin helped eliminate enzyme digest contamination and thus simplify sample analysis. […] After incubation at 37 °C for 20 min, 1 h, and 16 h, 20 μL of treated samples was collected and analyzed by analytical RP-HPLC and MALDI-TOF MS (Supplementary Materials).

DOR = DOR (Mus musculus, UniProt P32300); experiment: 55 °C warm-water tail-withdrawal test, antagonism of DOR-selective agonist SNC-80; settings: mice; 100 μg i.n.s. pretreatment; SNC-80 100 nmol i.c.v.; p = 0.67; 7–8 mice
Sequence of DOR (P32300 whole entry): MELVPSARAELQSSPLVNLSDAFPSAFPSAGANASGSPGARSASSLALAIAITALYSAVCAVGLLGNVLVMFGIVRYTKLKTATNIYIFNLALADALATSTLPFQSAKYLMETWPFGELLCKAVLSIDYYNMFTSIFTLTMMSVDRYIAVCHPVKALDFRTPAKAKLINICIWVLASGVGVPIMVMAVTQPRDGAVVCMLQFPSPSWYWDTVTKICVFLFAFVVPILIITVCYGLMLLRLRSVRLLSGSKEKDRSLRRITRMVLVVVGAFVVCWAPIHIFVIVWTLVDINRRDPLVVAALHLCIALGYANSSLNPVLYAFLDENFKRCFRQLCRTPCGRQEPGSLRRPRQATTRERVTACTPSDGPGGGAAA
Experimental: (§1) All solutions for animal administration were prepared fresh daily. All mice were lightly anesthetized with isoflurane (0.4%) prior to compound administration. […] The volume of all i.c.v. injections was 5 μL, using a 10-μL Hamilton microliter syringe. An incision was made in the scalp of the lightly anesthetized mouse, and the injection was made 2 mm lateral and 2 mm caudal to bregma at a depth of 3 mm.
(§2) The distal 2.5 cm of a mouse tail was immersed in warm (55 °C) water contained in a 1.5-L heated water bath. The time from the onset of the noxious heat stimulus to the withdrawal of the tail from the heat source was recorded.

C57BL/6J mice [6] = experiment: 55 °C warm-water tail-withdrawal test, compound alone
Experimental: Graded doses of OL-CTOP (100, 300 or 600 μg) were first administered through the intranasal (i.n.s.) route.
All mice were lightly anesthetized with isoflurane (0.4%) prior to compound administration. […] The volume of all i.c.v. injections was 5 μL, using a 10-μL Hamilton microliter syringe. An incision was made in the scalp of the lightly anesthetized mouse, and the injection was made 2 mm lateral and 2 mm caudal to bregma at a depth of 3 mm.
The 55 °C warm-water tail-withdrawal test was performed as previously described [73]. The distal 2.5 cm of a mouse tail was immersed in warm (55 °C) water contained in a 1.5-L heated water bath. The time from the onset of the noxious heat stimulus to the withdrawal of the tail from the heat source was recorded.

asialofetuin (ASF) = target: T3, asialofetuin (ASF) (Bos taurus, UniProt P12763); experiment: Carbohydrate-binding study by isothermal titration calorimetry (ITC)
T3 construct: purchased Sigma-Aldrich
T3 sequence (P12763 19-359): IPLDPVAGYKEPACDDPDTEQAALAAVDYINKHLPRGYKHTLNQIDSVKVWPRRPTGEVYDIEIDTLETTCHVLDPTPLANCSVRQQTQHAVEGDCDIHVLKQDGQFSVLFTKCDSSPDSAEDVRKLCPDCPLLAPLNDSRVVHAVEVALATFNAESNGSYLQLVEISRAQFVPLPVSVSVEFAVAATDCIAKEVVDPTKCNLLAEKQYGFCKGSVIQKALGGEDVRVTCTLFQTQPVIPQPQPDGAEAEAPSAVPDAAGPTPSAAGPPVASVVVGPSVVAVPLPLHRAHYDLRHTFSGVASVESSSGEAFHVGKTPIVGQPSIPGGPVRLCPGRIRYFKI
Experimental: We have shown previously that odorranalectin binds to model glycoproteins containing terminal Fuc, Gal and GalNAc sugar moieties with μM affinities and identified the binding interface. […] The binding affinities of OL-CTOP toward ASF were determined by Isothermal Titration Calorimetry (ITC). […] The enthalpy (ΔH) of the binding interaction between OL-CTOP and ASF was −131 kJ/mol, whereas the entropy (−TΔS) was 109.5 kJ/mol, showing that the OL-CTOP/ASF interaction is an enthalpy-driven process, which is typical for interactions between lectins and carbohydrate ligands.
A binding study was performed at 25 °C in 20 mM HEPES at pH 7.0 by using a titration calorimeter PEAQ-ITC (Malvern, Northampton, MA) with a reaction cell volume of 300 μL. Typically, asialofetuin solutions (240 μM) were in the reaction cell and titrated with solutions of OL-CTOP at a concentration of 4000 μM. OL-CTOP and asialofetuin were dialyzed and prepared in the same buffer. At least 18 consecutive injections of 2 μL were applied every 120 s interval at a constant stir speed of 750 rpm. The concentrations of OL-CTOP and ASF were confirmed by measurements using a BioTek Epoch microplate spectrophotometer (Agilent Technologies, Santa Clara, CA, USA). The raw integrated heat plots were analyzed using the MicroCal PEAQ-ITC software v1.21 (Malvern) under the 1-set-of-sites model, and the control parameter as a fitted offset was applied to each titration as per the manufacturer’s guidelines and our previous applications. The reported thermodynamic parameters were derived from two independent experiments and then averaged.

KOR = KOR (Mus musculus, UniProt P33534); experiment: 55 °C warm-water tail-withdrawal test, antagonism of KOR-selective agonist U50,488; settings: mice; 100 μg i.n.s. pretreatment; U50,488 100 nmol i.c.v.; p = 0.99; 7–8 mice
Sequence of KOR (P33534 whole entry): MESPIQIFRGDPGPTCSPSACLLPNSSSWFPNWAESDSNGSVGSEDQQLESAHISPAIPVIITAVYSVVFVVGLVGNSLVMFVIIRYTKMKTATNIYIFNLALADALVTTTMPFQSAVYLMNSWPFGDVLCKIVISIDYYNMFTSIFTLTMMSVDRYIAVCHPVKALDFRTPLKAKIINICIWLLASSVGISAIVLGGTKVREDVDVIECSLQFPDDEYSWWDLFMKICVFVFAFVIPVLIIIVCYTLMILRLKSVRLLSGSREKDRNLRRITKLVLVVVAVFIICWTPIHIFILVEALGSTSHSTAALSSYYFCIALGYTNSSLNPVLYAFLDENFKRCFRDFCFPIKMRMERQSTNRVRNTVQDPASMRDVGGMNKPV
Experimental: as §1, §2

[7] = test system: tosylsulfonyl phenylalanyl chloromethyl ketone (TPCK) trypsin immobilized on agarose resin; experiment: TPCK trypsin immobilized on agarose resin in digestion buffer (0.1 M NH4HCO3 [pH 8.0]); settings: 37 °C, up to 16 h (methods); 24 h (results, b12 and Figure 2)
[8] = in vivo; cited from earlier work
Source text: Opioid medication misuse, addiction, and overdose are growing public health problems nationwide. Methadone, buprenorphine, naltrexone and naloxone are the only FDA-approved medications to treat opioid use disorder (OUD) and, in the case of opioid receptor antagonists naltrexone and naloxone, overdose. […] Given their potency, peptides represent particularl ...

[9] = 25 °C, 20 mM HEPES pH 7.0, average of two independent experiments

Compound: YASPK-cyclo(CFRYPNGVLAC)T (disulfide) [odorranalectin]
- affinity for model glycoproteins [1]: μM affinities

Compound: C[C@@H](O)[C@H](NC(=O)[C@H]1NC(=O)[C@H]([C@@H](C)O)NC(=O)[C@H](CCCN)NC(=O)[C@@H](Cc2c[nH]c3ccccc23)NC(=O)[C@H](Cc2ccc(O)cc2)NC(=O)[C@@H](NC(=O)[C@H](N)Cc2ccccc2)CSSC1(C)C)C(N)=O [CTOP, H-D-Phe-cyclo(Cys-Tyr-D-Trp-Orn-Thr-Pen)-Thr-NH2]
- affinity for μ-opioid receptors (MOR) (μ-opioid receptors (MOR) [2]): 2.8 nM
- MOR antagonism, times more potent than naloxone (μ-opioid receptors (MOR) [3]): 10–400 times

Compound: C[C@H](NC(=O)[C@@H](N)Cc1ccc(O)cc1)C(=O)N[C@@H](CO)C(=O)N1CCC[C@H]1C(=O)N[C@@H](CCCCN)C(=O)N[C@H]1CSSC[C@@H](C(=O)N[C@H](C(N)=O)[C@@H](C)O)NC(=O)[C@H]([C@@H](C)O)NC(=O)[C@H]2NC(=O)[C@H]([C@@H](C)O)NC(=O)[C@H](CCCN)NC(=O)[C@@H](Cc3c[nH]c4ccccc34)NC(=O)[C@H](Cc3ccc(O)cc3)NC(=O)[C@H](CSSC2(C)C)NC(=O)[C@@H](Cc2ccccc2)NC(=O)[C@H](CCCNC(=N)N)NC(=O)[C@H](Cc2ccccc2)NC1=O [OL-CTOP] (H-YASPKCFR[dF]CY[dW][Orn]T[Pen]TCT-NH2; disulfide 6-17, 10-15; N-terminus assumed)
- protection from morphine-induced respiratory depression, 100 μg (C57BL/6J mice [4]; 100 μg i.n.s. 45 min prior to morphine 20 mg/kg i.p., p = 0.05 at 20–40 min, p = 0.02 at 40–60 min vs morphine alone): significantly prevented morphine-induced respiratory depression
- respiration rate versus vehicle-treated mice, late period, 100 μg (C57BL/6J mice [4]; 100 μg i.n.s. before morphine 20 mg/kg i.p., 60–120 min, p ≤ 0.03): elevated respiration
- respiration rate versus vehicle-treated mice out to 60 min, 100 μg (C57BL/6J mice [4]; 100 μg i.n.s. before morphine 20 mg/kg i.p., p = 0.06, 0.55 and 0.75): no significant differences in respiration rate
- protection from morphine-induced respiratory depression, 600 μg (C57BL/6J mice [4]; 600 μg i.n.s. 45 min prior to morphine 20 mg/kg i.p., p ≤ 0.009, 0–60 min vs morphine alone): significantly prevented morphine-induced respiratory depression
- respiration rate versus vehicle-treated mice, 600 μg (C57BL/6J mice [4]; 600 μg i.n.s. before morphine 20 mg/kg i.p., 20–120 min, p ≤ 0.04): elevated respiration
- antagonism of MOR-preferring agonist morphine (selectivity test) (MOR; 100 μg i.n.s. pretreatment, morphine 10 nmol i.c.v., 7–8 mice): significant antagonism
- antagonism of morphine antinociception, intranasal pretreatment 30-600 μg (MOR; 30, 100, 300 or 600 μg i.n.s., morphine 10 nmol i.c.v. after return to baseline at 45 min, latency 20, 30, 40 min afterward, five to eight mice): significant general reduction in the antinociceptive effect of morphine
- further cleavage after 1 h incubation with trypsin ([5]; 1 h, immobilized TPCK trypsin, 0.1 M NH4HCO3 pH 8.0, 37 °C): the peptide bond between Arg^8 and phe^9 was also cleaved
- parent peptide remaining after the first 10 min with trypsin ([5]; TPCK trypsin immobilized on agarose, 20 TAME units, 0.1 M NH4HCO3 pH 8.0, 1 mg peptide, 37 °C): without a detectable trace of the parent peptide
- antagonism of DOR-selective agonist SNC-80 (DOR): without effect
- increase in tail withdrawal latency from baseline, peptide alone (C57BL/6J mice [6]; mice, 100, 300 or 600 μg i.n.s., out to 30 min post-administration, p = 0.01): ~ 1 s
- ΔG of binding (asialofetuin (ASF); 20 mM HEPES pH 7.0, one-set-of-sites model): -5.14 kcal/mol
- Kd (asialofetuin (ASF); 25 °C, 20 mM HEPES pH 7.0, ASF 240 μM in cell, peptide 4000 μM, one-set-of-sites model, average of two independent experiments, read-out: Kd, OL-CTOP/ASF binding): 176 µM
- enthalpy (ΔH) of binding (asialofetuin (ASF); [9]): -31.3 kcal/mol
- entropy (−TΔS) of binding (asialofetuin (ASF); [9]): 26.17 kcal/mol
- antagonism of KOR-selective agonist U50,488 (KOR): without effect

Compound: Y-A-S-P-K-C-F-R-f-C-Y-w-O-T-Pen-T-C-T-NH2
- cleaved bond [7]: K-C, first_seen, within the first 10 min; also recorded: Arg8-phe9, major, 1 h

Compound: oxytocin
- plasma t1/2 [8]: 1 to 6 min
- t1/2 in the extracellular space of the brain and in the CSF [8]: approximately 30 min

Compound: CN1CC[C@]23c4c5ccc(O)c4O[C@H]2[C@@H](O)C=C[C@H]3[C@H]1C5 [morphine, reference compound]
- respiration after morphine with saline pretreatment versus vehicle alone (C57BL/6J mice [4]; morphine 20 mg/kg i.p. after i.n.s. saline, 10–60 min, p < 0.0001): significant, time-dependent respiratory depression
- tail-withdrawal latency after the agonist alone (C57BL/6J mice [6]; control (naïve) mice, 10 nmol i.c.v., versus baseline 1.49 ± 0.09 s, p < 0.0001): significant increase in tail-withdrawal latency
